Our source for the Kd and Ep values is article PMC4092373, “Cell-secreted Flavins Bound to Membrane Cytochromes Dictate Electron Transfer Reactions to Surfaces with Diverse Charge and pH” (Scientific Reports, 2014).

The target of one experiment is T1, MtrC (Shewanella oneidensis, UniProt Q8EG34).
T1 construct: native outer-membrane decaheme cytochrome in intact living cells (monolayer biofilm on ITO electrode), not purified
In words: whole-cell differential pulse voltammetry. The note with it: rough estimate in living wild-type MR-1 monolayer biofilm; printed for FMN and OM c-Cyts collectively, assigned to MtrC by gene deletions; saturation assumed at 52 μM FMN; semiquinone form bound under. It counts as cell-based.

For another experiment, the target named is T2, OmcA (Shewanella oneidensis, UniProt Q8EG33).
T2 construct: native outer-membrane decaheme cytochrome in intact living cells (wild type and delta-mtrC strain on ITO electrode), not purified
T2 sequence (Q8EG33 entry or part of it): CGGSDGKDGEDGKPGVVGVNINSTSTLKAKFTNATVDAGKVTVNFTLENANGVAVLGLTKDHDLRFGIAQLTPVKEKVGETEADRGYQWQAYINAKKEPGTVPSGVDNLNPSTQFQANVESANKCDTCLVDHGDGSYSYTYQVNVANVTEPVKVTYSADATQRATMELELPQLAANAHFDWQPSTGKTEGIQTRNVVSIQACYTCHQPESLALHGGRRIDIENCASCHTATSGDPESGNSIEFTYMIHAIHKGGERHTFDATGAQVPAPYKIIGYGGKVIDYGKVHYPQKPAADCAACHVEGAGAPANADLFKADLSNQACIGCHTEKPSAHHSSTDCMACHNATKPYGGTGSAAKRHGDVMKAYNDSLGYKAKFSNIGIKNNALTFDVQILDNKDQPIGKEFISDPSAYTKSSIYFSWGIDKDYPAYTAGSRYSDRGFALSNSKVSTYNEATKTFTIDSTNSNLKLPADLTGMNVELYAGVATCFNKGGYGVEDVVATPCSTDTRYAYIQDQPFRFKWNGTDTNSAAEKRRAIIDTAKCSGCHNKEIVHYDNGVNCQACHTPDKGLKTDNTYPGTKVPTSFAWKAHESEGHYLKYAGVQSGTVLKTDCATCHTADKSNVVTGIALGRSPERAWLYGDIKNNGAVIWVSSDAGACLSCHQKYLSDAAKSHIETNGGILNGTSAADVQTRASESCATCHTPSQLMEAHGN
Nature of the experiment: whole-cell differential pulse voltammetry. It is filed as cell-based. As to conditions: redox peak potential of bound riboflavin, no affinity constant; delta-mtrC cells, 2.0 μM RF, 10 mM lactate, 30 °C; shift lost in delta-omcA cells.

The structures appear in SMILES notation.

T1 sequence (Q8EG34 entry or part of it): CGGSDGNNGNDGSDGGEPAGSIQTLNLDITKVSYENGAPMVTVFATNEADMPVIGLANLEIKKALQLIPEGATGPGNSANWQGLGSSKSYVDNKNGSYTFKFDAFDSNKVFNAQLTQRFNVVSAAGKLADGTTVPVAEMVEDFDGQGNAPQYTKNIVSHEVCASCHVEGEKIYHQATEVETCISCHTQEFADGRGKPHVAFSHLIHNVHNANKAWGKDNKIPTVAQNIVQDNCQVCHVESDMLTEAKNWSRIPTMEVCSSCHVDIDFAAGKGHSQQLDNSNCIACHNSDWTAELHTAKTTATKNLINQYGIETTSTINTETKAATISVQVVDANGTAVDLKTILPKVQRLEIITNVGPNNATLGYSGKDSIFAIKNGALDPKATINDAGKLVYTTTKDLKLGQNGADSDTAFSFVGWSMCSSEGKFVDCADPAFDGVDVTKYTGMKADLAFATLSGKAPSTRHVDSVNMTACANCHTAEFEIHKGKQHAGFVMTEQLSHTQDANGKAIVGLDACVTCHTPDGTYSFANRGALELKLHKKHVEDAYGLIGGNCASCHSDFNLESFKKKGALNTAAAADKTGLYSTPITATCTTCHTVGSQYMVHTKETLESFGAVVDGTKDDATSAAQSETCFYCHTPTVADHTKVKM

On to `Cc1cc2nc3c(=O)[nH]c(=O)nc-3n(C[C@H](O)[C@H](O)[C@H](O)COP(=O)(O)O)c2cc1C` [FMN, flavin mononucleotide], for which the Kd (usually the equilibrium constant for the complex coming apart) on MtrC is around 10 µM. `Cc1cc2nc3c(=O)[nH]c(=O)nc-3n(C[C@H](O)[C@H](O)[C@H](O)CO)c2cc1C` [RF, riboflavin]: the Ep on OmcA is recorded as −102 mV.
